Measurements reported in patent publication US11191780B2, “Extracellular matrix compositions for the treatment of cancer or immunological diseases” (ADAPTIVE BIOLOGIX, INC., priority 2015, dated 2021).
Like-named read-outs stand apart in the source and are kept apart here.

Legend:
[1] = test system: lung cancer; conditions: cited from earlier work
[2] = test system: C6 cells; test: C6 tumor growth in nude mice, subcutaneous co-injection; format: in vivo, mouse; conditions: vs no treatment control (FIG. 12)
Description: (§1) Tumor growth of B16 cells, C6 cells, or MDA435 cells in the presence or absence of ECM, and with or without cisplatin, were examined in nude mice. Cells, ECM and Cisplatin were injected simultaneously subcutaneously in the lower haunch of a nude mouse. Tumor growth was followed over time using photography, measurements of length and width, then finally by weight. FIGS. 8 and 9 show the growth of tumors from C6 cells in nude mice in the presence (FIG. 9) and absence (FIG. 8) of ECM on day 14 post-injection. FIGS. 10 and 11 show the growth of tumors from C6 cells in nude mice in the presence of ECM with cisplatin (FIG. 10) and cisplatin without ECM (FIG. 11) of ECM on day 14 post-injection.

[3] = test system: MDA435 cells; test: MDA435 tumor growth in nude mice, subcutaneous co-injection; format: in vivo, mouse
Description: as §1

Row | Compound | ORR ([1]; PD-L1+ patients) | ORR ([1]; PD-L1 negative patients) | ORR ([1]; all the patients with lung cancer) | tumor growth over 18 days [2] | tumor growth over 25 days ([3]; vs no treatment control (FIG. 14)) | tumor growth ([3]; vs no treatment control (FIGS. 13A-D))
1 | MEDI4736: an engineered fully-human anti-PD-L1 antibody | up to 39% | 5% | 13% | – | – | –
2 | N.N.[Cl][Pt][Cl] [cisplatin] | – | – | – | no growth | reduction in tumor mass to zero | reduced or no tumor growth
